Common to all, as to experiment: inhibition of tumour cell growth, NCI panel, 48 h
Test [1] deals with SR leukemia.
Test [2] concerns SK-MEL-2 melanoma.
In test [3] the test system is KM12 colon.
Test [4] concerns SNB-75 CNS.
The test system of test [5] is SF-268 CNS.
The subject of test [6] is SK-MEL-5 melanoma.
Test [7] has as its system UACC-257 melanoma.
Test [8] has as its system HL-60(TB) leukemia.
The subject of test [9] is OVCAR-8 ovarian.
Test [10] relates to COLO 205 colon.

Each structure is given as a SMILES string. “And” between values parts separate entries of the source, which are not always exact repeats. Equal entries are not always repeated.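 Tested at 5 concentrations; 48 h exposure; 96-well plates; endpoints linearly interpolated, else capped at highest concentration. The concentration for 50% growth inhibition is given as GI50. TGI: concentration producing complete growth inhibition.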 Where only a bound is given, the exact number is not on record here.

Regarding `OCCn1cc(-c2cnc3nnn(Cc4ccc5ncccc5c4)c3n2)cn1`, the GI50 in [1] is above 100 µM; in test [2], above 76.2 µM; in test [3] it was above 100 µM; in test [4], above 100 µM; in test [5] it was above 100 µM; in test [6] it was above 100 µM. Moreover, the GI50 in [7], in test [8], in [9] and in test [10] was above 100 µM throughout. Further, the TGI in test [1], in [2], in [3], in test [4], in test [5] and in [6] was above 100 µM throughout. The TGI in test [7], in test [8], in test [9] and in [10] was above 100 µM each time.
Turning to `COc1ccc(/C=C\c2cc(OC)c(OC)c(OC)c2)cc1OCC(=O)Nc1nc2ccccc2s1`, the GI50 is 0.0363 µM in [1]; 0.187 µM in test [2]; 0.0646 µM in test [3]; 0.109 µM in test [4]; 0.23 µM in test [5]; 0.0405 µM in [6]. Also, the GI50 in [7] was 11 µM; in test [8] it was 0.0275 µM; in [9] it was 0.257 µM; in test [10] it was 3.26 µM. In addition, the TGI is above 100 µM in test [1]; above 100 µM in test [2]; above 100 µM in test [3]; above 100 µM in test [4]; above 100 µM in [5]; 0.263 µM in test [6]. The TGI in test [7] was above 100 µM; in test [8], above 100 µM; in test [9], above 100 µM; in [10], above 49.5 µM.
For `CCOC(=O)Cn1c(-c2nonc2NC(=O)c2ccccc2F)nc2ccccc21`, the GI50 is 0.411 µM in test [1]; 41.3 µM in test [2]; 1.93 µM in test [3]; 4.29 µM in [4]; 1.89 µM in test [5]; 0.539 µM in test [6]. Further, the values for the GI50 in test [7], in test [9] and in test [10] were 8.78 µM, 0.739 µM and above 35.6 µM, respectively. Moreover, the TGI in [1] is above 100 µM; in [2], above 85.5 µM; in [3] it was above 100 µM; in test [4], 46 µM; in [5], above 100 µM; in [6] it was above 100 µM. Moreover, the TGI is above 100 µM in test [7], above 100 µM in test [8], above 60.1 µM in test [9] and above 100 µM in [10].
Consider `COc1ccc(C(=O)/C=C/c2cc(-c3ccc4c(c3)OCO4)n[nH]2)cc1OC`, for which the GI50 is 1.27 µM in test [1]; 6.93 µM in test [2]; 2.86 µM in test [3]; 1.98 µM in [4]; 2.53 µM in [5]; 6.74 µM in [6]. Moreover, the GI50 in test [7] was 7.06 µM; in [8], 2.82 µM; in test [9], 2.15 µM; in test [10] it was 3.84 µM. Moreover, the TGI in test [1] was 6.48 µM; in test [2] it was 23.2 µM; in test [3], 9.48 µM; in test [4] it was 7.57 µM; in test [5] it was 7.61 µM; in test [6], 19.9 µM. The TGI in test [7] was determined as 22.1 µM; in [8], 11.8 µM; in test [9], 5.82 µM; in [10], 14 µM.
On to `ClC1c2ccccc2C2(c3ccccc3)OOC1(c1ccccc1)O2` (stereo unspecified), for which the TGI in test [1] was found to be 3.4 µM; in [2], 5.64 µM; in test [3] it was 3.63 µM; in test [4], 3.27 µM; in [5] it was 4.19 µM; in [6], 2.83 µM. Further, the TGI in [7] was 3.65 µM; in [8] it was 0.309 µM; in [9] it was 5.16 µM; in [10], 4.58 µM.
Consider `CCOc1ccc(NCC2CC/C(=C\c3ccc(Cl)cc3)C2=O)cc1` (stereo unspecified), for which the TGI is above 50.4 µM in test [1]; 58.7 µM in test [2]; above 44 µM in test [3]; above 76.5 µM in test [4]; above 86.7 µM in test [5]; above 59.2 µM in test [6]. Also, the TGI is above 56.1 µM in [7], 37.3 µM in test [8], above 52.8 µM in test [9] and above 52.5 µM in test [10].
`Oc1ccc2ccccc2c1N=Nc1ccc(Cl)cc1`: the TGI in [1], in test [2], in test [3], in test [4], in test [5] and in test [6] was above 100 µM each time. Further, the TGI in test [7], in test [8], in [9] and in [10] was above 100 µM in each case.
Regarding `CC(C)C[CH2][Ge]([CH2]CC(C)C)([CH2]CC(C)C)[CH2]CC(C)C`, the GI50 in test [1], in test [2], in test [3], in test [4], in test [5] and in [6] was above 100 µM throughout. The GI50 in test [7], in test [8], in [9] and in test [10] was above 100 µM throughout. Moreover, the TGI in test [1], in test [2], in [3], in test [4], in [5] and in [6] was above 100 µM throughout. Also, the TGI in test [7], in test [8], in test [9] and in [10] was above 100 µM throughout.
In the case of `CCCCCCCCCCC[C@@H](C[C@H]1OC(=O)[C@H]1CCCCCC)OC(=O)[C@@H](CC(C)C)NC=O`, the GI50 in [1] is 3.52 µM; in [2], 6.04 µM; in test [3], 3.92 µM; in test [4], 2.55 µM; in test [5], 2.31 µM; in test [6] it was 2.8 µM. Besides, the GI50 was 38.4 µM in [7], 1.75 µM in [8], 2.5 µM in test [9] and 11.6 µM in [10]. Further, the TGI is 42.9 µM in [1]; 24.8 µM in test [2]; 34.6 µM in test [3]; 12.6 µM in test [4]; 21.9 µM in [5]; 10.4 µM in test [6]. In addition, the TGI in test [7] is above 100 µM; in test [8], 4.34 µM; in test [9], 15.7 µM; in [10], 32.1 µM.
Take `O=C(c1ccco1)c1nc2cc(C(F)(F)F)ccc2[n+]([O-])c1C(F)(F)F`: the GI50 in test [1] is 41.4 µM; in [2], 46 µM; in [3], 17.4 µM; in test [4], 23 µM; in test [5] it was 52.4 µM; in test [6], 33.3 µM. The GI50 was 69.8 µM in test [7], 78.1 µM in test [8], above 100 µM in test [9] and 43.8 µM in test [10]. Also, the TGI in [1] was above 100 µM; in test [2], above 100 µM; in test [3] it was above 100 µM; in test [4], 90.9 µM; in test [5], above 100 µM; in test [6], above 100 µM. The TGI in test [7], in test [8], in test [9] and in [10] was above 100 µM in each case.
In the case of `CC#CC#C/C=C1\C=CC2(OC=CC2OC(C)=O)O1` (stereo unspecified), the TGI in [1] is 89.6 µM and > 94.5 µM; in test [2], above 100 µM; in [3], 63.7 µM and 54.8 µM; in test [4], > 100 µM and 95.9 µM; in test [5] it was 85.4 µM and 46.1 µM; in [6], 36.8 µM. The TGI in test [7] was > 100 µM and 33.6 µM; in test [8] it was 36.5 µM and > 86.7 µM; in test [9], > 100 µM and 51.7 µM; in [10] it was 28.2 µM and 33.3 µM. Further, the GI50 is 90.2 µM and 28.9 µM in test [2]; 30.5 µM and 15 µM in [7].
As to `C[C@@H](Oc1cc(-n2cnc3ccc(OCC4CCN(C)CC4)cc32)sc1C(N)=O)c1ccccc1Cl`, the GI50 in test [1] was 0.0448 µM; in [2] it was 0.0559 µM; in test [3], 0.0507 µM; in test [4], 0.0898 µM; in [5], 0.112 µM; in test [6], 0.0929 µM. The GI50 in test [7] was 0.117 µM; in test [8], 0.044 µM; in test [9], 0.0793 µM; in [10], 0.0165 µM. For the same molecule, the TGI was found to be 0.697 µM in test [1]; 4.13 µM in [2]; 2.73 µM in [3]; 1.81 µM in [4]; 4.07 µM in [5]; 1.26 µM in [6]. Besides, the TGI is 4.99 µM in test [7], 0.543 µM in [8], 3.11 µM in test [9] and 0.631 µM in test [10].
For the molecule `N#Cc1cc([N+](=O)[O-])ccc1NC(=O)C(=O)C(C(=O)c1ccc2ccccc2c1)C1OCc2ccccc21` (stereo unspecified), the TGI came to 16.9 µM in test [1]; 16.2 µM in [2]; 30.4 µM in [3]; 16.1 µM in [4]; 47.7 µM in [5]; 24.8 µM in test [6]. The TGI was found to be 28.2 µM in test [7], 46.7 µM in test [8], 20.9 µM in test [9] and 27.8 µM in [10].
With `O=C1NC(=O)[C@@H](c2c[nH]c3ccccc23)[C@@H]1c1c[nH]c2ccccc12`, the GI50 in test [1], in test [2], in test [3], in test [4], in test [5] and in [6] was above 25 µM in each case. The GI50 in test [7], in [8], in test [9] and in [10] was above 25 µM throughout. Moreover, the TGI in test [1], in test [2], in test [3], in [4], in test [5] and in [6] was above 25 µM in each case. For the same molecule, the TGI in test [7], in [8], in [9] and in test [10] was above 25 µM in each case.
Regarding `COc1cc(/C=C/C(=N\NC(=S)NN)c2sc(NNC(C)=O)nc2C)ccc1O`, the TGI in test [1], in test [2], in test [3], in test [4], in test [5] and in test [6] was above 100 µM throughout. Also, the TGI in test [7], in test [8], in test [9] and in test [10] was above 100 µM each time.
In the case of `CCCCCCCCCCCC1=NC(C)(C)CN1CC(C)O` (stereo unspecified), the GI50 in test [1] was 1.47 µM; in [2] it was 2.41 µM; in test [3], 2.25 µM; in test [4], 9.26 µM; in test [5], 7.35 µM; in test [6] it was 5.65 µM. The GI50 in test [7] was 2.81 µM; in [8], 2.44 µM; in test [9], 8.89 µM; in test [10] it was 1.68 µM. Further, the TGI turned out to be 3.75 µM in test [1]; 6.12 µM in test [2]; 4.84 µM in [3]; 21.3 µM in [4]; 19.9 µM in [5]; 18.1 µM in test [6]. Moreover, the TGI in test [7] came out at 7.49 µM; in test [8] it was 5.68 µM; in test [9], 25 µM; in [10] it was 3.05 µM.
For `COc1ccc(-c2nnc(SCC(=O)Nc3ccc(C(=O)/C=C/c4cc(OC)c(OC)c(OC)c4)cc3)n2-c2ccccc2)cc1OC`, the GI50 in test [1] was 0.666 µM; in test [2], above 10 µM; in [3], 2.38 µM; in [4], above 10 µM; in [5] it was 3.46 µM; in [6], 7.79 µM. Moreover, the GI50 was above 10 µM in test [7], 6.44 µM in test [8], 5.29 µM in test [9] and above 10 µM in test [10]. Moreover, the TGI in test [1], in test [2], in [3], in [4], in [5] and in test [6] was above 10 µM in each case. Moreover, the TGI in [7], in test [8], in [9] and in [10] was above 10 µM each time.
